Data taken from patent US9814714B2, “Kinase modulation, and indications therefor” (Plexxikon Inc., priority 2015, dated 2017).

Assays:
[1] = target: BRAF_V600R (Homo sapiens, UniProt P15056, V600R); assay: RAF kinase biochemical assay, BRAF V600R; conditions: Table 3; ATP 100 μM
Procedure: (§1) BRAF proteins were produced in insect cells at Plexxikon Inc. as N-terminally His-tagged fragments encompassing the kinase domain.
(§2) 1) Test compounds in DMSO were serially diluted and plated into 384-well assay plates at 1 μL/well.
(§3) 2) Added were 15 μL/well of RAF enzyme and biotinylated-MEK1 substrate in kinase buffer.
(§4) 3) Added were 4 μL of ATP (500 μM) in kinase buffer.
(§5) 5) After a brief spin down, the plate was incubated at about room temperature for 40-50 minutes. 6) Added was 5 μL of Stop buffer at final EDTA 20 mM; anti-phospho-MEK1 1:2,500; donor/acceptor beads 3 μg/mL. 7) After brief spin down, the plate was incubated at room temperature for about 3 hours. 8) The plate was read on the Envision multilabel plate reader (Perkin Elmer). […] 2. Results

[2] = target: BRAF_V600A (Homo sapiens, UniProt P15056, V600A); assay: RAF kinase biochemical assay, BRAF V600A; conditions: Table 3; ATP 100 μM
BRAF_V600A, sequence (P15056 432-726 V600A): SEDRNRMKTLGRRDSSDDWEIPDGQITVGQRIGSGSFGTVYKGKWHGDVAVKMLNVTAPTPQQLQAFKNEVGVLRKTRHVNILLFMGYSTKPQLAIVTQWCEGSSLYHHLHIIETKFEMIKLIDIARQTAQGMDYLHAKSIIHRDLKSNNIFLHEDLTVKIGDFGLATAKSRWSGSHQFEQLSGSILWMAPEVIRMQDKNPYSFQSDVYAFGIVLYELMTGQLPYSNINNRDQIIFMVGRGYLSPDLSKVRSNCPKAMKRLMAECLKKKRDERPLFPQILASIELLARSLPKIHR
Procedure: as §1, §2, §3, §4, §5

[3] = test system: ML-2 cells; assay: Growth assay (CellTiter-Glo), ML-2; format: cell-based; conditions: Homo sapiens, ML-2, 72 h; acute myelomonocytic leukemia; BRAF WT, KRAS-A146T; 3 days
Text: (§6) In order to determine the effects of Formula I on proliferation, a growth assay was established using melanoma cells (A375 and COLO829) and colorectal carcinoma cells (COLO205, HT-29) which each express the BRAFV600E mutation. To show selectivity over wild-type BRAF, several BRAF wild-type cell lines (K562, NOMO-1, MV-4-11 and ML-2) were also examined in the growth assay. The growth assay implemented the Promega CellTiter-Glo Luminescent Cell viability assay, which gives a luminescent readout that is proportional to the amount of ATP present in a cell sample. As ATP levels directly correlate with the number of viable cells, the luminescent signal can be used to determine the potency of Formula I to block the proliferation of the cell lines of interest.
(§7) 1. 3,000 cells were plated in each well for cell lines A375, COLO205, COLO829, HT-29, and SK-MEL-3. 25,000 cells were plated in each well for cell lines K562, ML-2, MV-4-11, and
(§8) NOMO-1 of a 96-well tissue-culture-treated plate (Corning #3610) in a 50 μL volume. Cells were incubated overnight at 37° C.
(§9) 2. Each test compound was plated as an 8-point titration, using 1:3 dilutions in DMSO. The maximum concentration was about 5 mM. Dilute DMSO and test compound of Formula I 1:250 in growth media.
3. […]
(§10) 4. […] Luminescence was measured on a Tecan Safire plate reader. […]

[4] = test system: NOMO-1 cells; assay: Growth assay (CellTiter-Glo), NOMO-1; format: cell-based; conditions: Homo sapiens, NOMO-1, 72 h; acute myeloid leukemia; BRAF WT, KRAS-G13D; 3 days
Text: as §6, §7, §8, §9
3. […]
as §10

[5] = target: BRAF_V600G (Homo sapiens, UniProt P15056, V600G); assay: RAF kinase biochemical assay, BRAF V600G; conditions: Table 3; ATP 100 μM
BRAF_V600G, sequence (P15056 432-726 V600G): as the sequence (P15056 432-726 V600A) above, with A169G counted along it
Procedure: as §1, §2, §3, §4, §5

[6] = test system: K562 cells; assay: Growth assay (CellTiter-Glo), K562; format: cell-based; conditions: Homo sapiens, K562, 72 h; chronic myeloid leukemia; BRAF WT, RAS WT; 3 days
Text: as §6, §7, §8, §9
3. […]
as §10

[7] = test system: BRAF-V600E in SK-MEL-239 parental cells; assay: ERK/MEK phosphorylation and growth assays, SK-MEL-239 parental; format: cell-based
[8] = target: BRAF_V600K (Homo sapiens, UniProt P15056, V600K); assay: RAF kinase biochemical assay, BRAF V600K; conditions: Table 3; ATP 100 μM
BRAF_V600K, sequence (P15056 448-723 V600K): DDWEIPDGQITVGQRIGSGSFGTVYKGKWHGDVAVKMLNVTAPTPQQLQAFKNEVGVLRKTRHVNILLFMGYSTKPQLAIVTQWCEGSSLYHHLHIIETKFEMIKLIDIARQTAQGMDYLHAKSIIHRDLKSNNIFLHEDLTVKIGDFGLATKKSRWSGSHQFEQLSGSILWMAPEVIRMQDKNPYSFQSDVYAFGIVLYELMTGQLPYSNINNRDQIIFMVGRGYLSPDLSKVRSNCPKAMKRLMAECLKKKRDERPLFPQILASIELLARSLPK
Procedure: as §1, §2, §3, §4, §5

[9] = test system: HT-29 cells; assay: Growth assay (CellTiter-Glo), HT-29; format: cell-based; conditions: Homo sapiens, HT-29, 72 h; colorectal adenocarcinoma; BRAF V600E/WT, RAS WT; 3 days
Text: as §6, §7, §8, §9
3. […]
as §10

[10] = test system: BRAF-V600E in vemurafenib-resistant SK-MEL-239 C3 cells
[11] = target: NIH/3T3 cells stably expressing KIAA1549-BRAF fusions (Homo sapiens, UniProt P15056); assay: BRAF fusion xenograft tumor growth; format: in vivo, balb/c nu/nu mice; conditions: all three xenografts (three of the four KIAA1549-BRAF fusions); flank of balb/c nu/nu mice
NIH/3T3 cells stably expressing KIAA1549-BRAF fusions, sequence (P15056 448-766 limits assumed): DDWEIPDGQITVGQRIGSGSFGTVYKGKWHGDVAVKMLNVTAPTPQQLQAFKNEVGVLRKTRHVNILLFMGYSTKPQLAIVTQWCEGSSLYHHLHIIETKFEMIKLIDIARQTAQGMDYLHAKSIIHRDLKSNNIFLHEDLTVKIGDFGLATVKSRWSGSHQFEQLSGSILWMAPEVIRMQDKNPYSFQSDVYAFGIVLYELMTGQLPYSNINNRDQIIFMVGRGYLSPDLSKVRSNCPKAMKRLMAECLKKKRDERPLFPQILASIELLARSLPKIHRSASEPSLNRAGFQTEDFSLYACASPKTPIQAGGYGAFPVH
Procedure: NIH/3T3 (ATCC® CRL-1658™) cells stably expressing KIAA1549-BRAF fusions (Fusion-1, Fusion-2, Fusion-3, and Fusion-4) were injected into the flank of balb/c nu/nu mice. Tumor growth was measured with calipers. Ellipsoid tumor volume was calculated using the following formula: volume=½·length·width^2.

[12] = test system: MV-4-11 cells; assay: Growth assay (CellTiter-Glo), MV-4-11; format: cell-based; conditions: Homo sapiens, MV4-11, 72 h; biphenotypic B myelomonocytic leukemia; BRAF WT, RAS WT; 3 days
Text: as §6, §7, §8, §9
3. […]
as §10

BRAF_V600R, sequence (P15056 448-723 V600R): as the sequence (P15056 448-723 V600K) above, with K153R counted along it

Q: With `O=C(c1c(F)ccc(NS(=O)(=O)N2CC[C@@H](F)C2)c1F)c1c[nH]c2ncc(-c3cnc(C4CC4)nc3)cc12` [Formula I, (3R)—N-[3-[5-(2-cyclopropylpyrimidin-5-yl)-1H-pyrrolo[2,3-b]pyridine-3-carbonyl]-2,4-difluorophenyl]-3-fluoropyrrolidine-1-sulfonamide] as the compound, how does the IC50 [1] read?
A: Its IC50 is 3.5 nM.

Q: And the IC50 [2]?
A: Its IC50 is 14.2 nM.

Q: And the IC50 [3]?
A: Its IC50 is greater than 10000 nM.

Q: And the IC50 [4]?
A: Its IC50 is greater than 10000 nM.

Q: And the IC50 [5]?
A: The IC50 was 6.3 nM.

Q: And the IC50 [6]?
A: The IC50 was greater than 10000 nM.

Q: And the “Inhibition of BRAF-V600E in SK-MEL-239 parental (in words)” value [7]?
A: The value was “potent inhibitor”.

Q: What about the IC50 [8] of the same compound?
A: The IC50 was 3.9 nM.

Q: And the IC50 [9]?
A: The IC50 was 840 nM.

Q: And the “Inhibition of BRAF-V600E in vemurafenib-resistant C3 (in words)” value [10]?
A: Its value is “potent inhibitor”.

Q: What about the “Inhibition of xenograft growth (tumor volume)” value [11] of the same compound?
A: The value was no less than 50%.

Q: What about the IC50 [12] of the same compound?
A: Its IC50 is greater than 10000 nM.
